The structures appear in SMILES notation.

This note sets out measurements from patent US20210378244A1, “VIRUCIDAL COMPOSITIONS AND METHODS” (InExtreme Enterprises Pty Ltd, priority 2020, published 2021).

For the experiment, the system named is Gloeocapsa magma. Nature of the experiment: Biological testing: visual rating of Gloeocapsa magma growth on inoculated plywood panels dipped in test solutions. The format is cell-based. The following applies: for effect on biocidal activity when combined with DDAC and/or BAC (QAC): QAC or QAC mixture and additive at concentrations as in the tables, data not shown for urea and urea dihydrochloride. The method, then: Test Solutions and Tests: To prepare the various QAC solutions, the following materials where used: Stepan BTC 1010 (50% aqueous solution of didecyl dimethyl ammonium chloride) and Stepan BTC 12 Special (50% aqueous solution of alkyl dimethyl benzyl ammonium chloride). Urea Monohydrochloride was prepared by reacting solid urea with hydrochloric acid 20BE (32% aqueous solution) at a ratio of one Mol active HCl to one Mol urea. Both Urea and HCl 20 BE are readily commercially available.
Biological testing: Gloeocapsa magma was chosen as a bacterial species that served as a model system for corona virus in terms of surface adhesion and membrane characteristics. The bacteria were cultured in a petri dish and inoculated on plywood panels (10×10 cm). […] The panels were dipped in the testing solutions for 10 seconds and left to dry. 24 hours post immersion each panel was examined for presence of green (living bacteria). This was done visually and rated from 0 (no growth)) to 5 (full growth coverage).

As to `CCCCCCCCCC[N+](C)(C)CCCCCCCCCC.[Cl-]` [DDAC, didecyl dimethyl ammonium chloride], the biocidal effect result (0.9% of DDAC in combination with the urea or other nitrogenous base-hydrochloride in water) is recorded as “same biocidal effect as 3% DDAC alone in water”. As to `Cl.NC(N)=O` [UMC, Urea Monohydrochloride], the “effect on biocidal activity when combined with DDAC and/or BAC (QAC)” value (from here on “effect on biocidal activity”) is listed as “synergistic effect”.

As to `Cl.Cl.NC(N)=O` [urea dihydrochloride], the “effect on biocidal activity” value is listed as “no impact in biocidal activity”.

As for `NC(N)=O` [urea], the “effect on biocidal activity” value is listed as “no impact in biocidal activity”.
